{"source": "patent US20160297828A1", "about": "“SPIROCYCLIC COMPOUNDS CONTAINING SPIRO[INDOLYL-3,1'-PYRROLO[3,4-C]PYRROLE] CORE AND SULPHUR-CONTAINING AMINO ACID RESIDUES” (priority 2013, published 2016)", "key": {"rats": {"tested_on": "rats", "assay": "Acute normobaric hypoxic hypoxia with hypercapnia (ANHHH), life duration", "type": "in vivo", "conditions": "preventive administration; SI-86 and SI-108 10 mg/kg iv, mexydol 100 mg/kg ip", "description": "The study of antihypoxic activity of 10 original derivatives of 3,2′-spiro-pyrrolo-2-oxindole was conducted on models of acute normobaric hypoxic hypoxia with hypercapnia (ANHHH) and acute asphyxia. ANHHH was modeled by means of rat arrangement into isolated pressure compartments (0.001 m^3). The observation conducted until the death of the animals. The antihypoxic activity was assessed by life duration (in minutes) in relation to the control taken as 100%, by the formula AA=tt/tk×100%, wherein AA—antihypoxic activity (%), tt—life duration of test animals, tc—life duration of control animals.\n(§1) The preliminary screening of test substances was performed on ANHHH model. All derivatives were administered in the same dose of 10 mg/kg […] (iv) 1 hour prior to pathological state modeling. […] The effectiveness of a leader compound was evaluated at doses 5; 10 and 15 mg/kg iv. Mexydol was chosen as a reference drug having antihypoxic action in combination with antioxidant and membrane protective activity, which is successfully used in patients with CVA and IM. Mexydol was administered intraperitoneally (ip) at a dose of 100 mg/kg according to similar scheme."}, "[1]": {"tested_on": "rat heart bioelectrical activity", "assay": "Acute asphyxia, duration of heart bioelectrical activity", "type": "in vivo, rats", "conditions": "10 mg/kg iv", "description": "Acute asphyxia was modeled in rats anesthetized with propofol (60 mg/kg) intraperitoneally (ip) by complete clamping the trachea at electrocardiogram (EGC) registration. The antihypoxic effect was evaluated by duration of heart bioelectric activity (HBA). This model allows to estimate the heart sensitivity to hypoxia. An isoelectric ECG line for 1 minute considered as HBA termination, the pint of HBA termination corresponded to the last QRS complex on the ECG. The calculation of […] activity was performed by the above formula considering a point of last QRS complex registration as a lifetime.\nas §1"}, "11β-corticosterone": {"tested_on": "11β-corticosterone", "assay": "11β-corticosterone level in venous blood of rats with bilateral carotid occlusion (ELISA)", "type": "in vivo, Wistar rats", "conditions": "for dynamics in percents in relation to control pathology group / dynamics in percents in relation to the group of pseudo-operated animals / 11β-corticosterone level in venous blood: BCO", "description": "The neuroprotective effect of 3,2′-spiro-pyrrolo-2-oxindole derivative (SI-86 compound) was studied in Wistar rats on a model of cerebrovascular accident (CVA) of ischemic type in archencephalic pool forming bilateral carotid occlusion (BCO) by carotid artery ligation. The ligations for common carotid arteries was imposed under propofol anesthesia at a dose of 60 mg/kg intraperitoneally (ip), using surgical access to the front of the neck cutting through its white line. The chosen model allows to reproduce the clinical pattern of ischemic stroke and is adequate for clinical study of potential neuroprotective substances (Drug discovery and Evaluation: pharmacological assays/H. Gerhard Vogel (ed.).-2nd ed. 1453p.).\nThe derivative of 3,2′-spiro-pyrrolo-2-oxindole was investigated in conventionally effective dose of 10 mg/kg […] (iv)—dose which is provided maximum antihypoxic activity of SI-86 compound by the results of our previous study. The reference drugs were injected intraperitoneally (ip). BCO was applied to the rats of control pathology and 0.9% NaCI solution was administered as therapy calculated for 2 ml/kg ip.\nPseudo-operated rats were exposed to all interventions (anesthesia, skin incision, dissection of vessels) except arteries ligation that leveled traumatic impact of experimental conditions.\nTo determine a corticosterone level (species-specific cortisol analogue in rats, which is also a substrate for 11β-HSD1) in the corresponding period (4 th and 21 st CVA day) in rat by sagittal sinus puncture, blood was sampled (0.2-0.4 ml). The cortisol level was measured by ELISA using a CORTICOSTERONEE KIT set (Germany) on the instrument of the company “Hipson” (Czech Republic)."}, "[2]": {"tested_on": "rats with intracerebral hemorrhage", "assay": "Conditioned response of passive avoidance (CRPA) in rats with intracerebral hemorrhage", "type": "in vivo", "conditions": "21st day; SI-86 10 mg/kg iv, mexydol 100, citocoline 250, actovegin 16, pyracetam 400 mg/kg ip; n = 15", "description": "(§2) Neuroprotective effect of 3,2′-spiro-pyrrolo-2-oxindole derivative (SI-86 compound) was studied on IUD model of moderate severity modeled under propofol anesthesia (60 mg/kg intraperitoneally (ip)) by autoblood administration into the brain internal capsule (stereotactic coordinates of the projection: H=7.0 mm, L=3.0 mm, A=1.5 mm from bregma) ([…]) (Method for reproduction of intracerebral hemorrhage in rats/O. K. Yarosh, S. V. Kyrychenko, S. P. Halimonchyk [et al.]//Circulation and hemostasis.-2005.-No. 1.-P. 77-81). The chosen model allows to reproduce clinical pattern of […] and is adequate for clinical study of potential neuroprotective agents.\n(§3) As comparators the following drugs were used: mexydol (“Mexydol” UC Pharmasoft, Russia), 100 mg/kg; citicoline (“Somazina” Ferrer International, SA, Spain), 250 mg/kg; aktovegin (“Aktovegin”, Nycomed, Austria), 16 mg/kg pyracetam (“Pyracetam” Darnitsa, Ukraine), 400 mg/kg. According to the latest clinical guidelines regarding the treatment of patients with CVA approved by the Ministry of Health of Ukraine (Order No. 602 dated 3 Aug. 2012), all these drugs are allowed to be included into schemes for intensive patients therapy with CVA as neuroprotective agents. They were used at recommended doses for preclinical studies (McGrow C. P. Experimental Cerebral Infarction Effects of Pentobarbital in Mongolian Gerbils/C. P. McGrow//Arch. Neurol.-1977.-Vol. 34, No. 6.-P. 334-336). Experimental therapy of acute cerebral ischemia with SI-86 compound and comparator started 1 hour after IUD once a day for 21 days. The SI-86 derivative was investigated in conventionally effective dose of 10 mg/kg […] (iv)-dose that according to the results of our previous study provides maximum antihypoxic activity of SI-86 compound. Reference drugs were injected intraperitoneally (ip). Rats of control pathology group were injected by autoblood and as therapy 0.9% NaCI solution was administered calculated for 2 ml/kg […].\nEvaluation of the ability of animals to learn and memorize of aversive stimulus was examined in the test of conditioned response of passive avoidance (CRPA). The technique is based on innate rat instinct to limited shadowy space. The study in rats was conducted in two-compartment unit consisted of two sections—light and dark. An animal was arranged into light compartment, fixing latency time for entering into the dark compartment, wherein rat received current irritation and ran in the light compartment. CRPA retention was tested every other day under latency time change of rat entering into the dark compartment. Also the number of animals was noted not fully entered the dark chamber. Cerebroprotective efficiency criteria of studied compounds were also animal death term (days) and their mortality rate (in %)."}, "[3]": {"tested_on": "neuron-specific enolase (NSE)", "assay": "Neuron-specific enolase (NSE) activity in rats with bilateral carotid occlusion (ELISA)", "type": "in vivo", "conditions": "BCO; for NSE activity (dynamics of neurodestructive changes): n = 7", "description": "The derivative of 3,2′-spiro-pyrrolo-2-oxindole was studied in conventionally effective dose of 10 mg/kg […] (iv)—dose that by the results of our previous study provided maximum antihypoxic activity of the SI-86compound. Reference drugs were injected intraperitoneally (ip). […] BCO was made to rats of control pathology and as therapy 0.9% NaCI solution was administered calculated for 2 ml/kg ip.\nPseudooperative rats were exposed to all interventions (anesthesia, skin incision, dissection of vessels) except arteries ligation that leveled traumatic effect of experimental conditions.\nTo determine neurospecific enolase, specific marker of cerebral ischemia,—to the period (4 th and 21 st day of CVA) in rat's blood was sampled by sagittal sinus puncture (0.2-0.4 ml). NSE activity was measured by ELISA using a set NSE EIA KIT (DAI, USA) on the instrument of the company “Hipson” (Czech Republic)."}, "[4]": {"tested_on": "neuron-specific enolase (NSE)", "assay": "Neuron-specific enolase (NSE) activity in rats with intracerebral hemorrhage (ELISA)", "type": "in vivo", "conditions": "for NSE activity (dynamics of neurodestructive changes): acute cerebral hemorrhage, n = 7; for enzyme activity decreased in relation to the control pathology group: hemorrhage", "description": "The derivative of 3,2′-spiro-pyrrolo-2-oxindole was investigated in conventionally effective dose of 10 mg/kg […] (iv)—dose that according to the results of our previous studies provided maximum antihypoxic activity of SI-86 compound. Reference drugs were injected intraperitoneally (ip). […] Autoblood was injected to rats with control pathology and 0.9% NaCI solution was administered as therapy calculated for 2 ml/kg ip.\nPsevdooperated rats were exposed to all interventions (anesthesia, craniotomy) with the exception of autoblood administration that leveled traumatic impact of experimental conditions.\nTo determine neuron-specific enolase, the specific marker of cerebral ischemia,—for corresponding period (4 th and 21 st day of CVA) in rats, blood was sampled by sagittal sinus puncture (0.2-0.4 ml). NSE activity was measured by ELISA using a set NSE EIA KIT (DAI, USA) on the instrument of the company “Hipson” (Czech Republic)."}, "[5]": {"tested_on": "rats with intracerebral hemorrhage", "assay": "Neurological deficit (C. P. McGrow stroke-index scale) in rats with intracerebral hemorrhage", "type": "in vivo", "conditions": "n = 15", "description": "as §2, §3\nNeurological deficit in animals with acute CVA respectively in acute (4th day) and recovery (21 st day) periods was measured on C. P. McGrow stroke-index scale. The state severity was determined by amount of relevant points: to 3 points-mild, 3 to 7 points-average, above 7 points-severe degree. Pareses, paralyses of limbs, tremors, circus movement, ptoses, lateral positions, ability of rats to be maintained at the core of 15 cm diameter, rotating at the rate of 3 rpm were noted. The animals were tested daily by displaying the amount of points:\none-sided semi-ptosis—0.5 points; one-sided ptosis—1 point; tremor—0.5 points; circus movements—0.5 points; pareses of limbs (for each limb)—1 point; paralyses of limbs (for each limb)—2 points; lateral position—3 points; disability to maintain on rotating rod during 4 minutes—3 points."}, "[6]": {"conditions": "day 4, SI-86 10 mg/kg iv, citocoline 250 mg/kg ip"}}, "note": "“And” between values parts separate entries of the source, which are not always exact repeats. Identical values can stand only once.", "data": [{"smiles": "CCSCC[C@@H]1N[C@@]2(C(=O)N(Cc3ccc(Cl)cc3)c3ccccc32)[C@@H]2C(=O)N(c3ccc(C)cc3)C(=O)[C@H]12", "note": "[SI-108, 1-(4-Chloro-benzyl)-3′-[2-(ethylthio)ethyl]-5′-(4-methylphenyl)-3a′,6a′-dihydro-2′H-spiro[indole-3,1′-pyrrolo[3,4-c]pyrrol]-2,4′,6′(1H,3′H,5′H)-trione]", "values": [{"measurement": "increase of life duration in rats in relation to control", "setting": "rats", "value": 28.6, "unit": "%"}, {"measurement": "Antihypoxic activity", "setting": "[1]", "value": "−18.4", "unit": "%"}, {"measurement": "Duration of heart bioelectrical activity", "setting": "[1]", "value": "9.5 ± 1.1", "unit": "min"}]}, {"smiles": "C[N+](C)(C)CCOP(=O)(O)OP(=O)([O-])OC[C@H]1O[C@@H](n2ccc(N)nc2=O)[C@H](O)[C@@H]1O", "note": "[citocoline, reference compound]", "values": [{"measurement": "dynamics in percents in relation to control pathology group", "setting": "11β-corticosterone; day 4", "value": "[−41.7%]"}, {"measurement": "dynamics in percents in relation to the group of pseudo-operated animals", "setting": "11β-corticosterone; day 4", "value": "(+126.9%)"}, {"measurement": "11β-corticosterone level in venous blood", "setting": "11β-corticosterone; [6]", "value": "272.79 ± 1.95", "unit": "°* ng/ml"}, {"measurement": "dynamics in percents in relation to control pathology group", "setting": "11β-corticosterone; day 21", "value": "[−30.2%]"}, {"measurement": "dynamics in percents in relation to the group of pseudo-operated animals", "setting": "11β-corticosterone; day 21", "value": "(+152.7%)"}, {"measurement": "11β-corticosterone level in venous blood", "setting": "11β-corticosterone; day 21, same doses", "value": "235.52 ± 7.82", "unit": "°*^• ng/ml"}, {"measurement": "corticosterone concentration in sagittal sinus blood decreased in relation to the control pathology group", "setting": "11β-corticosterone; after 96 hours", "value": 41.7, "unit": "%"}, {"measurement": "corticosterone concentration in sagittal sinus blood decreased in relation to the control pathology group", "setting": "11β-corticosterone; after 21 days", "value": 30.2, "unit": "%"}, {"measurement": "Latent period for entrance into dark compartment, prior study", "setting": "[2]", "value": "12.50 ± 0.75", "unit": "°*^# s"}, {"measurement": "enzyme activity decreased in relation to the control pathology group", "setting": "[3]; 96 hours", "value": 1.27, "unit": "times"}, {"measurement": "enzyme activity decreased in relation to the control pathology group", "setting": "[3]; 21 days", "value": 2.03, "unit": "times"}, {"measurement": "NSE activity (dynamics of neurodestructive changes)", "setting": "[3]; [6]", "value": "0.972 ± 0.010"}, {"measurement": "NSE activity (dynamics of neurodestructive changes)", "setting": "[3]; day 21, same doses", "value": "0.385 ± 0.010"}, {"measurement": "NSE activity (dynamics of neurodestructive changes)", "setting": "[4]; [6]", "value": "1.292 ± 0.069"}, {"measurement": "NSE activity (dynamics of neurodestructive changes)", "setting": "[4]; day 21, same doses", "value": "0.309 ± 0.05"}, {"measurement": "enzyme activity decreased in relation to the control pathology group", "setting": "[4]; 96 hours", "value": 2.2, "unit": "times"}, {"measurement": "enzyme activity decreased in relation to the control pathology group", "setting": "[4]; 21 days", "value": 3.1, "unit": "times"}, {"measurement": "neurological deficit, average point under C. P. McGrow scale", "setting": "[5]; day 4, SI-86 10 mg/kg iv, mexydol 100, citocoline 250, actovegin 16, pyracetam 400 mg/kg ip", "value": "5.0 points and 5.00 ± 0.18°*^#$ points"}, {"measurement": "neurological deficit, average point under C. P. McGrow scale", "setting": "[5]; day 21, same doses", "value": "3.1 points and 3.10 ± 0.15°*^#&$ points"}]}]}
